Results taken from patent US11707500B2, “Growth promoting peptides, and uses thereof” (NURITAS LIMITED, priority 2015, dated 2023).

Tests used:
Assay type in all cases: cell-based
[1] = system: Human Dermal Fibroblasts (HDF); test: BrdU cell proliferation assay; details: HDF incubated 24 h with 5, 0.5 or 0.05 μg/ml synthetic peptide; percentage of untreated control
Protocol: BrDu is incorporated into newly synthesised DNA strands of actively proliferating cells. Following partial denaturation of double stranded DNA, Brdu is detected immunochemically allowing the assessment of the population of cells which are synthesizing DNA.
Human Dermal Fibroblasts (HDF—Sigma 10605a) were seeded in a 96 well plate at 10,000 cells per well in DMEM containing 10% fetal calf serum (FCS), 1% Pen/strep, 1% L-glutamine and allowed to adhere for 24 h.
Following the initial 24 h incubation the cells were incubated with 5 μg/ml, 0.5 μg/ml or 0.05 μg/ml synthetic peptide for 24 h respectively.
After 18 h incubation with synthetic peptides 20 μl BrDu reagent was added to each well.
At 24 h incubation the cell were fixed and the amount of […] was measured using the BrdU Cell Proliferation Assay, all steps were carried out according to the manufacturer's instructions.
Results were calculated as a percentage of the untreated control. An increase in optical density reading indicates greatER incorporation of BrDu and increase cell proliferation.

[2] = system: elastic fibers of the dermis, human skin tissue explants; test: Morphometric quantification of elastic fibers (elastin expression) in skin explants; details: for Morphometric quantification of elastic fibers in the middle dermis (%) / Morphometric quantification of elastic fibers in the superficial dermis (%): test items applied twice per day, 5 μL per explant, peptides 20 μM (Peptide 8 10 μM), compositions 500 μg/mL, EGF 10 ng/mL
Protocol: (§1) Skin explants were prepared from abdominal plastic surgery. Some explants were delipidated with alcohol to obtain a dehydrated skin.
(§2) These explants were maintained in maintenance medium supplied by the provider Bioprédic International for 5 days. Test items are applied twice per day with 5 μL per explant.
For each time of analysis (D1 and D5), histologies on delipidated explants, treated explants with test items, the DMSO 0.3% control and water control, are performed.
(§3) After receipt in the laboratory, each skin explant in the maintenance medium is delipidated with 5 μL alcohol during 3 hours.
(§4) After 3 hours, all skin explants are treated two per day with test items, and they are incubated at 37° C.+/−2° C., 5% CO2 for 1 day or 5 days. Integrity of the system is realized at day 1 and day 5 with a viability control with MTT.
Histology is realized by the laboratory Gredeco and the immunostaining to elastin and Ki67 are realized by the same laboratory. Immunostaining to filaggrin is realized by the laboratory Intertek.
The immunohistochemical staining intensity in the elastic fibers is evaluated using a semi-quantitative histological score.
The percentage area taken up by elastic fibers in the dermis was calculated in the dermis and the average superficial dermis.

[3] = system: keratinocytes of the basal layer of the epidermis, human skin tissue explants; test: Ki67 immunohistochemistry (mitotic index) in skin explants; details: for % of Ki67 positive cells in the basal layer of the epidermis: peptides 20 μM (Peptide 8 10 μM), compositions 500 μg/mL, EGF 10 ng/mL; for number of mitotic cells compared to EGF at day 1: day 1, compared to EGF
Protocol: as §1, §2, §3, §4
Epithelial proliferation was analyzed by immunohistochemistry using anti-Ki67 antibody.
Counting the number of labeled cells (keratinocytes of the basal layer of the epidermis) is performed and provides the total number of basal cells to calculate the % of labeled cells.
The results of the immunohistochemical analysis of Ki67 are reported in Table 4 and expressed as % of labelled at the basal layer of the epidermis. […] Immunohistochemical analysis of mitotic activity is shown in annex 4 with a reminder of the average for each analysed conditions.

## 470 (PHMP) [compound 470]
[1]
  INCREASE IN PROLIFERATION: 119%

## 471 (PHMPS) [compound 471]
[1]
  INCREASE IN PROLIFERATION: 38%

## 472 (PRRF) [compound 472]
[1]
  INCREASE IN PROLIFERATION: 77%

## 473 (WMKA) [compound 473]
[1]
  INCREASE IN PROLIFERATION: 41%

## 474 (DSINALEPDHR) [compound 474]
[1]
  INCREASE IN PROLIFERATION: 121%

## 477 (IFEDAITIPGR) [compound 477]
[1]
  INCREASE IN PROLIFERATION: 81%

## 478 (LDALEPDNRIESE) [compound 478]
[1]
  INCREASE IN PROLIFERATION: 76%

## 479 (KTLDYWPSLR) [compound 479]
[1]
  INCREASE IN PROLIFERATION: 106%

## 480 (RHGEWGPSY) [compound 480]
[1]
  INCREASE IN PROLIFERATION: 102%

## 482 (ILVDGSHDIER) [compound 482]
[1]
  INCREASE IN PROLIFERATION: 113%

## 495 (HPMS) [compound 495]
[1]
  INCREASE IN PROLIFERATION: 68%

## 497 (MPMP) [compound 497]
[1]
  INCREASE IN PROLIFERATION: 58%

## 499 (PNSM) [compound 499]
[1]
  INCREASE IN PROLIFERATION: 113%

## 500 (WDPA) [compound 500]
[1]
  INCREASE IN PROLIFERATION: 6%

## 501 (LRGFSK) [compound 501]
[1]
  INCREASE IN PROLIFERATION: 43%

## 502 (RSQNIF) [compound 502]
[1]
  INCREASE IN PROLIFERATION: 68%

## 503 (YLRGFS) [compound 503]
[1]
  INCREASE IN PROLIFERATION: 125%

## 504 (GALMLPHYN) [compound 504]
[1]
  INCREASE IN PROLIFERATION: 119%

## 505 (GALMLPHYNSR) [compound 505]
[1]
  INCREASE IN PROLIFERATION: 118%

## HGPVEMPYTLLYPSSK [0723.01]
[2]; D 1
  Morphometric quantification of elastic fibers in the middle dermis (%): 7.59%
  Morphometric quantification of elastic fibers in the superficial dermis (%): 4.45%
[2]
  elastic fibers in the middle dermis compared to the water control at D5: an increase
  elastic fibers in the superficial dermis compared to control water: increase by twice
[2]; D 5
  Morphometric quantification of elastic fibers in the middle dermis (%): 10.17%
  Morphometric quantification of elastic fibers in the superficial dermis (%): 10.21%
[3]; D 1
  % of Ki67 positive cells in the basal layer of the epidermis: 18.57%
[3]; D 5
  % of Ki67 positive cells in the basal layer of the epidermis: 3.92%

## LDALEPDNR [0723.03]
[2]; D 1
  Morphometric quantification of elastic fibers in the middle dermis (%): 4.9%
  Morphometric quantification of elastic fibers in the superficial dermis (%): 3%
[2]
  elastic fibers in the middle dermis compared to the water control at D5: an increase
  elastic fibers in the superficial dermis compared to control water: increase by twice
[2]; D 5
  Morphometric quantification of elastic fibers in the middle dermis (%): 9%
  Morphometric quantification of elastic fibers in the superficial dermis (%): 11.68%
[3]; D 1
  % of Ki67 positive cells in the basal layer of the epidermis: 22.01%
[3]; D 5
  % of Ki67 positive cells in the basal layer of the epidermis: 10.04%

## QQYGIAASPFLQSAA [0723.07]
[2]; D 1
  Morphometric quantification of elastic fibers in the middle dermis (%): 6.46%
  Morphometric quantification of elastic fibers in the superficial dermis (%): 4%
[2]; D 5
  Morphometric quantification of elastic fibers in the middle dermis (%): 5.33%
  Morphometric quantification of elastic fibers in the superficial dermis (%): 5.15%
[3]; D 1
  % of Ki67 positive cells in the basal layer of the epidermis: 22.22%
[3]; D 5
  % of Ki67 positive cells in the basal layer of the epidermis: 5.26%

## RLQSQNDQRGEIIHVK [0723.02]
[2]; D 1
  Morphometric quantification of elastic fibers in the superficial dermis (%): 6.09%
[2]
  elastic fibers in the middle dermis compared to the water control at D5: an increase
[2]; D 5
  Morphometric quantification of elastic fibers in the middle dermis (%): 9.08%
  Morphometric quantification of elastic fibers in the superficial dermis (%): 7.59%
[2]; day 1, compared to control water
  elastic fibers in the middle dermis at day 1 compared to control water: increase doubled
[3]; D 1
  % of Ki67 positive cells in the basal layer of the epidermis: 19.61%
[3]; D 5
  % of Ki67 positive cells in the basal layer of the epidermis: 6.73%

## RPYYSNAPQEIF [0723.04]
[2]; D 1
  Morphometric quantification of elastic fibers in the middle dermis (%): 5.22%
  Morphometric quantification of elastic fibers in the superficial dermis (%): 3.28%
[2]; D 5
  Morphometric quantification of elastic fibers in the middle dermis (%): 9%
  Morphometric quantification of elastic fibers in the superficial dermis (%): 8.94%
[3]; D 1
  % of Ki67 positive cells in the basal layer of the epidermis: 14.97%
[3]; D 5
  % of Ki67 positive cells in the basal layer of the epidermis: 11.36%

## SKPHTIFLPQHTDADYILVVLSGK [0723.08]
[2]; D 1
  Morphometric quantification of elastic fibers in the middle dermis (%): 3.52%
  Morphometric quantification of elastic fibers in the superficial dermis (%): 2.7%
[2]; D 5
  Morphometric quantification of elastic fibers in the middle dermis (%): 7.27%
  Morphometric quantification of elastic fibers in the superficial dermis (%): 5.32%
[3]; D 1
  % of Ki67 positive cells in the basal layer of the epidermis: 27.83%
[3]; D 5
  % of Ki67 positive cells in the basal layer of the epidermis: 5.72%
[3]
  number of mitotic cells compared to EGF at day 1: an increase

## TVFDGVLRPGQL [0723.06]
[2]; D 1
  Morphometric quantification of elastic fibers in the middle dermis (%): 4.54%
  Morphometric quantification of elastic fibers in the superficial dermis (%): 3.8%
[2]; D 5
  Morphometric quantification of elastic fibers in the middle dermis (%): 8.67%
  Morphometric quantification of elastic fibers in the superficial dermis (%): 4.03%
[3]; D 1
  % of Ki67 positive cells in the basal layer of the epidermis: 31.97%
[3]; D 5
  % of Ki67 positive cells in the basal layer of the epidermis: 5.04%
[3]
  number of mitotic cells compared to EGF at day 1: an increase

## VLLEQQEQEPQH [0723.05]
[2]; D 1
  Morphometric quantification of elastic fibers in the middle dermis (%): 8.8%
  Morphometric quantification of elastic fibers in the superficial dermis (%): 6.34%
[2]; D 5
  Morphometric quantification of elastic fibers in the middle dermis (%): 6.61%
  Morphometric quantification of elastic fibers in the superficial dermis (%): 6.26%
[3]; D 1
  % of Ki67 positive cells in the basal layer of the epidermis: 9.48%
[3]; D 5
  % of Ki67 positive cells in the basal layer of the epidermis: 3.08%
